In ChEMBL document CHEMBL3098059, “Identification by in silico and in vitro screenings of small organic molecules acting as reversible inhibitors of kallikreins” (Eur J Med Chem, 2013):
Active and inactive are the calls of the source. The rule behind the calls is not given here.

Assays:
[1] = biological target: T1, Kallikrein-14 (Homo sapiens) (UniProt Q9P0G3); assay: Inhibition of human kallikrein14 using Boc-Val-Pro-Arg-AMC as substrate at 50 uM after 15 mins by fluorescence assay
T1 sequence (whole entry): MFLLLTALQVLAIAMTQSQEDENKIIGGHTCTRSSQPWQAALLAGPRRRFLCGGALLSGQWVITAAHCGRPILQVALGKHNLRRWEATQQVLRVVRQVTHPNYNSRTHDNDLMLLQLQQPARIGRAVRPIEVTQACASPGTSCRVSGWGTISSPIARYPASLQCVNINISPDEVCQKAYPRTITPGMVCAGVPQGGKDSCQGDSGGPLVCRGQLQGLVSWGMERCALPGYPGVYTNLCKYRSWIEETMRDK

[2] = biological target: T2, Suppressor of tumorigenicity 14 protein (Homo sapiens) (UniProt Q9Y5Y6); assay: Inhibition of matriptase (unknown origin) using Boc-Gln-Ala-Arg-AMC as substrate at 50 uM after 15 mins by fluorescence assay
T2 sequence (whole entry): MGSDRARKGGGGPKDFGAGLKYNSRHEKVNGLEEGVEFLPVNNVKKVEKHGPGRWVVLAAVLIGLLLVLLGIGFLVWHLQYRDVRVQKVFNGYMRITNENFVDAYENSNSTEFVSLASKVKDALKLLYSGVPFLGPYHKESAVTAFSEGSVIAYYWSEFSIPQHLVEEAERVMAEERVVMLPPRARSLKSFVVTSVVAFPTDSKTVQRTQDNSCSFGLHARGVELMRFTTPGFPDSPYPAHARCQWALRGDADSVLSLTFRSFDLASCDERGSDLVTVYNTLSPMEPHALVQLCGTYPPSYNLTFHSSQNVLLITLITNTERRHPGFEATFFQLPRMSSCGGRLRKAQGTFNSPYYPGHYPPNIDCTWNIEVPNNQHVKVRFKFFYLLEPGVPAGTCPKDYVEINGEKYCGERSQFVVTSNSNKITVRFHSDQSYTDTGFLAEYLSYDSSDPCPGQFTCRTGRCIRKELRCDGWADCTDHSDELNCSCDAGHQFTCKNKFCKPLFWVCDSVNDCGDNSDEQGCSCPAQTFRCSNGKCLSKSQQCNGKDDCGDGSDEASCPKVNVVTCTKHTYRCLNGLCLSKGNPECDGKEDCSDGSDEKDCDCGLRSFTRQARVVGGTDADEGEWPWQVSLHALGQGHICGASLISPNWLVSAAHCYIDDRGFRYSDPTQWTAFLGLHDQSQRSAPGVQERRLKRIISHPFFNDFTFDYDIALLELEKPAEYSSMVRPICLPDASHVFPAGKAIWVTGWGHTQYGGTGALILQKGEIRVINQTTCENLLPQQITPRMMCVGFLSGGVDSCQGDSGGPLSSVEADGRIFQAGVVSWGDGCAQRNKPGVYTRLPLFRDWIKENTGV

[3] = biological target: T3, Kallikrein-7 (Homo sapiens, UniProt P49862); assay: Mixed-type inhibition of human kallikrein7 using Suc-Leu-Leu-Val-Tyr-AMC as substrate assessed as enzyme-substrate-inhibitor complex after 15 to 60 mins by Lineweaver-Burk/Eadie-Hofstee plot analysis
Target sequence in this assay (P49862 whole entry): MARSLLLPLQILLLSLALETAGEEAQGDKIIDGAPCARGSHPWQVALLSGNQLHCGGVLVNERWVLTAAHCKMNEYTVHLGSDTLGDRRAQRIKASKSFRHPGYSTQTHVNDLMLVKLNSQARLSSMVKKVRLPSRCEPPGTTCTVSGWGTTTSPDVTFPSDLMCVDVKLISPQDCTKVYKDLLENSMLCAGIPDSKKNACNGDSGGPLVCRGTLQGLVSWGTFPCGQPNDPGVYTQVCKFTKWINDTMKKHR

[4] = biological target: T1, Kallikrein-14 (Homo sapiens); assay: Reversible inhibition of human kallikrein14 using Boc-Val-Pro-Arg-AMC as substrate after 15 to 60 mins by fluorescence assay
[5] = biological target: Kallikrein-5 (Homo sapiens) (UniProt Q9Y337); assay: Inhibition of human kallikrein5 using Boc-Val-Pro-Arg-AMC as substrate at 50 uM after 15 mins by fluorescence assay
[6] = biological target: T2, Suppressor of tumorigenicity 14 protein (Homo sapiens); assay: Reversible inhibition of matriptase (unknown origin) using Boc-Gln-Ala-Arg-AMC as substrate after 15 to 60 mins by fluorescence assay
[7] = biological target: T3, Kallikrein-7; assay: Inhibition of human kallikrein7 using Suc-Leu-Leu-Val-Tyr-AMC as substrate after 15 mins by fluorescence assay
Target sequence in this assay (P49862 whole entry): as above

[8] = biological target: Kallikrein-5 (Homo sapiens) (UniProt Q9Y337); assay: Reversible inhibition of human kallikrein5 using Boc-Val-Pro-Arg-AMC as substrate after 15 to 60 mins by fluorescence assay
[9] = biological target: T3, Kallikrein-7; assay: Reversible inhibition of human kallikrein7 using Suc-Leu-Leu-Val-Tyr-AMC as substrate after 15 to 60 mins by fluorescence assay
Target sequence in this assay (P49862 30-253 limits assumed): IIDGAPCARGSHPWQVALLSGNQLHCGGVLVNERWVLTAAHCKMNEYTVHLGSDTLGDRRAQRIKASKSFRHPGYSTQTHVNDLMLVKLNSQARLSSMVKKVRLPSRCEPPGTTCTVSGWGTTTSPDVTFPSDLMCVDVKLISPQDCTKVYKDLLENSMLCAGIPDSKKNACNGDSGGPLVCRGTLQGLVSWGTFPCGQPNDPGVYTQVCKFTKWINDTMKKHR

[10] = Cytotoxicity against human keratinocytes assessed as cell viability at 10 uM after 24 to 48 hrs by neutral red assay; assay type: cell-based, Keratinocyte; conditions: keratinocyte, 10 µM
[11] = biological target: Kallikrein-5 (Homo sapiens) (UniProt Q9Y337); assay: Competitive inhibition of human kallikrein5 using Boc-Val-Pro-Arg-AMC as substrate at 50 uM after 15 to 60 mins by Lineweaver-Burk/Eadie-Hofstee plot analysis
[12] = biological target: T3, Kallikrein-7; assay: Mixed-type inhibition of human kallikrein7 using Suc-Leu-Leu-Val-Tyr-AMC as substrate assessed as enzyme-inhibitor complex after 15 to 60 mins by Lineweaver-Burk/Eadie-Hofstee plot analysis
Target sequence in this assay (P49862 whole entry): as the sequence (P49862 whole entry) above

[13] = Cytotoxicity against human keratinocytes assessed as cell viability at 1 uM after 24 to 48 hrs by neutral red assay; assay type: cell-based; conditions: keratinocyte
[14] = Cytotoxicity against human keratinocytes assessed as cell viability at 100 uM after 24 to 48 hrs by neutral red assay; assay type: cell-based; conditions: keratinocyte
[15] = biological target: T3, Kallikrein-7; assay: Ratio of Ki for mixed-type inhibition of human kallikrein7 assessed as enzyme-substrate-inhibitor complex to Ki for mixed-type inhibition of human kallikrein7 assessed as enzyme-inhibitor complex
Target sequence in this assay (P49862 30-253 limits assumed): as the sequence (P49862 30-253 limits assumed) above

Kallikrein-5 (Homo sapiens), sequence (Q9Y337 whole entry): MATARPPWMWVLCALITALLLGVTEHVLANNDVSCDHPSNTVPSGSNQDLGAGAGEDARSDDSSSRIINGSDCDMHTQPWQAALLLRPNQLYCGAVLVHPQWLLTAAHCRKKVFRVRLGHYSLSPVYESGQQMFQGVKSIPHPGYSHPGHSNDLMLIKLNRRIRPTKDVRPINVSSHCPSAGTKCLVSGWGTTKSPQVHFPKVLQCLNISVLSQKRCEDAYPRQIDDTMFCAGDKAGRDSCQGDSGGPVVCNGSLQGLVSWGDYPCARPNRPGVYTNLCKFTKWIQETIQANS

Nc1ccc2[nH]c(SCc3nc4ccccc4c(=O)n3-c3cccc(C(F)(F)F)c3)nc2c1
inhibition [1]: < 30%
inhibition [2]: < 30%
Ki [3]: 44 µM
inhibition [4]: Active
inhibition [5]: < 30%
inhibition [6]: Active
IC50 [7]: 25 µM
inhibition [8]: Active
inhibition [9]: Active
Activity [10]: Non-toxic
inhibition [11]: < 30%
Ki [12]: 15 µM
Activity [13]: Non-toxic
Activity [14]: Non-toxic
Ratio Ki [15]: 2
